This is an account of results in US9757350B2, “Small molecule inhibitors of replication protein A that also act synergistically with cisplatin” (Indiana University Research and Technology Corp., priority 2010, dated 2017).

For one assay, the system named is A2780 cells. Nature of the assay: CCK-8 cell viability assay, A2780. In kind it is cell-based. The settings on record: 24 hours of treatment. The method, then: Referring now to FIG. 13A. Cell Viability and Apoptosis of Ovarian and p53 null Lung Cancer Cell Lines. A) Ovarian cancer cell line A2780 and the p53 null lung cancer cell line, H1299, were treated with log dosing of MCI13E and viability analyzed via CCK-8 metabolic assay as described in Methods. Data is presented as cell survival which was determined as a percent of the untreated control cells and represents the average and standard deviation of triplicate experiments Referring now to FIG. 13B.
Ovarian cancer cell line, A2780, cells are difficult to use for crystal violet analysis due to their enhanced sensitivity to treatment. Therefore, the cell counting kit-8 (CCK) was used to determine the viability of A2780 cells in addition to the p53 null lung cancer cell line H1299, following a 24 hour treatment with log dosing of SMI. Cells were plated (1×10^5) in 24-well dishes and treated with inhibitor after 24 hours. After treatment media was aspirated and 1 ml of DMEM was added in addition to 100 μL of CCK-8 solution. Absorbance at 450 nm was measured over 4 hours in a SpectraMax M5 plate reader and values are presented as the percent untreated control at the two hour time point for three separate plate replicates each containing three assays per plate.

For the next assay, the system named is H460 cells. Kind of assay: Cell cycle analysis by PI staining, H460. In kind it is cell-based. Conditions: H460, increasing doses. As for the experimental part: Referring now to FIG. 12A and FIG. 12B. Cell Cycle Analysis of Lung Cancer Cell Lines Following Treatment with MCI13E. A549. Referring now to FIG. 12C, and FIG. 12D. H460 were treated as indicated and analyzed for the cell cycle distribution using PI staining and flow cytometry. Quantification of data following 6 hours and 12 hour treatment with 10 and 20 μM MCI13E was performed for both A549 (FIG. 12E) and H460 (FIG. 12F) Data presented represent the averages of three replicate experiments.
(§1) Cell cycle analysis was also performed on the three lung cancer cell lines using PI staining to identify the potential arrest resulting from treatment with SMIs. Briefly, cells were plated in 6-well dishes (2×10^5 cells total) and treated for 6 or 12 hours with increasing concentration of inhibitor. Adherent and non-adherent cells were collected, washed twice with PBS containing 2% bovine serum albumin (BSA), resuspended in 70% cold EtOH and incubated overnight at −20° C. Cells were again collected and stained with PI (1 μg/mL) and RNaseA (25 μg/mL) for 30 min. at 37° C. followed by 1.5 hours at 4° C. in the dark. Flow cytometry was performed as above and data were analyzed on a histogram with events plotted against the FL2-A parameter. Cell cycle distribution was analyzed using the ModFit software and data presented represents three independent trials.

The next assay has as its system H1299 cells. Nature of the assay: Cell cycle analysis by PI staining, H1299. In kind it is cell-based. Conditions: 6, 12 and 24 hours of treatment. The method, then:
as §1, with “Briefly, cells were plated in 6-well dishes (2×10^5 cells total) and treated for 6 or 12 hours with increasing concentration of inhibitor.” left out

A further assay has as its system RPA. Kind of assay: Western blot of endogenous RPA34 levels. The settings on record: western blot for RPA34. It is filed as cell-based. As for the experimental part:
Referring now to FIG. 18. Blot showing Endogenous Levels of RPA. Each cell line analyzed were plated (3×10^6) in 10 cm dishes and allowed to adhere overnight. Following a 5 ml PBS wash the cells were scraped into 100 μl of RIPA buffer. Cell extracts (40 μg) were loaded onto 10% SDS-PAGE gels, transferred to nitrocellulose membranes and probed for the presence of RPA34. Purified RPA was used as a positive control while GAPDH was probed for a loading control.
A general note: A western blot detects proteins with antibodies after separation by electrophoresis.

Assay [1] concerns the target T1, full-length heterotrimeric RPA (Homo sapiens, UniProt P27694).
T1 construct: Human full-length, un-tagged heterotrimeric RPA (RPA) was purified as previously describe; made in house
Kind of assay: Reversibility of full-length RPA inhibition: dialysis, then EMSA. Conditions: overnight dialysis, then EMSA with 34-base DNA. In kind it is binding. The method, then: Considering the differential inhibition observed between the anhydride and halo esters with respect to specificity, experiments were carried out to determine if the isoborneol halo-esters inhibited full-length RPA in an irreversible fashion. Full-length RPA was mixed with MCI13E or vehicle control and the reaction mixtures were then dialyzed overnight. Referring now to FIG. 5. Gel showing irreversible inactivation of full-length heterotrimeric RPA by MCI13E. Incubation of RPA with MCI13E, dialysis and recovery was performed as described for FIG. 3. DNA binding activity of the resulting protein was assessed by EMSA using a 5′-[^32P]-ss 34-base DNA as described in “Methods”. Lanes 1-4 pre-dialysis, lanes 5 and 6 post dialysis. […] In fact, the degree of inhibition was similar to that observed for the MCI13E treated RPA before dialysis (FIG. 5 lanes 3 and 4). […] This activity is consistent with MCI13E and F and their reaction with RPA serving as a pharmacodynamic marker of RPA inhibition or as a biomarker for RPA expression and activity.
In order to assess the reversibility of select SMIs, the indicated SMI was pre-incubated with RPA or the DBD-A/B construct for 30 minutes at room temperature. […] The resulting protein was recovered and concentration determined by Bradford analysis. […]
A general note: In EMSA bound probe runs differently from free probe, usually more slowly.

T1 sequence (P27694 whole entry): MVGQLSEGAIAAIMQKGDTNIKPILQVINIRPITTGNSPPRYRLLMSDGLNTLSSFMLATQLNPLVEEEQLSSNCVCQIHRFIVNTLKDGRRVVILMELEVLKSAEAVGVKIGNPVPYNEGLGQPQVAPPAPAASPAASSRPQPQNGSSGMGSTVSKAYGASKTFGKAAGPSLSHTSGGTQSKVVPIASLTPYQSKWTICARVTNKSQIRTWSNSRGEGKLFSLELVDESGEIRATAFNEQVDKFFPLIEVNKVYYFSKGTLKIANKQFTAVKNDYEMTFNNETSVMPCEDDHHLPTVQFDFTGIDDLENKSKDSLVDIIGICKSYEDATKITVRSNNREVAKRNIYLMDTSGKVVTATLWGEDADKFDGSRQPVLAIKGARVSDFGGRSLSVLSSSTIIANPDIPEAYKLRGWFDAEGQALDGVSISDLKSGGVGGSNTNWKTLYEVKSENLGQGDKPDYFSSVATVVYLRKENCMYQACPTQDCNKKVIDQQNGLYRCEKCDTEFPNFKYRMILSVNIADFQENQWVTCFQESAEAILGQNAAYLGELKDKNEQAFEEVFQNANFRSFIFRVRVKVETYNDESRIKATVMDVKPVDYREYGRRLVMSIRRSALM
T1 sequence (P15927 whole entry partner): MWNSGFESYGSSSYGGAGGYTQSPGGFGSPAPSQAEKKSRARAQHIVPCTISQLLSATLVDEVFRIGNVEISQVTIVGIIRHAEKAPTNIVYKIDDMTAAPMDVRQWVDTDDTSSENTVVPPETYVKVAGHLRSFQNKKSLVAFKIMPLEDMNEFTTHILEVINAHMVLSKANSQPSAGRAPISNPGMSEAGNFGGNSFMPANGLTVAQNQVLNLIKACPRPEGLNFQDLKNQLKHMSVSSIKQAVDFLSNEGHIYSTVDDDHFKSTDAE
T1 sequence (P35244 whole entry partner): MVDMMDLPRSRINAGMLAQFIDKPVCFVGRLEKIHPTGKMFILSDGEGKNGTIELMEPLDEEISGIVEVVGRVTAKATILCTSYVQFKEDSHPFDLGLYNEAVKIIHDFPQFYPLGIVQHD

As to `CC1(C)C2CCC1(C)C(OC(=O)CBr)C2` (racemic) [MCI13E, (+/−)-Isobornyl bromoacetate], the IC50 in the assay on A2780 cells was around 1000 nM. For the same compound, the Cell cycle distribution result in the assay with H460 cells is reported as “increase in the proportion of cells in S-phase”; in the assay on H1299 cells it was “increased percentage of cells accumulated in S-phase”. Also, the “Levels of endogenous RPA” value in the assay on RPA is given as “No change in the levels of endogenous RPA”. Besides, the “Reversibility of full-length RPA inhibition” value in assay [1] is given as “inhibition was not reversed by dialysis”.

The IC50 is the concentration that inhibits the measured activity by half. Higher therefore signals weaker potency in that assay.
